Activity calls are given as the source filed them.
What was measured:
[1] = molecular target: T1, Calpain-2 catalytic subunit (Sus scrofa, UniProt P43367); experiment: m-calpain protease blockers, concentration series – biochemical, fluorogenic peptide substrate, dose response (AID 1420); format: functional
T1 sequence (P43367 whole entry): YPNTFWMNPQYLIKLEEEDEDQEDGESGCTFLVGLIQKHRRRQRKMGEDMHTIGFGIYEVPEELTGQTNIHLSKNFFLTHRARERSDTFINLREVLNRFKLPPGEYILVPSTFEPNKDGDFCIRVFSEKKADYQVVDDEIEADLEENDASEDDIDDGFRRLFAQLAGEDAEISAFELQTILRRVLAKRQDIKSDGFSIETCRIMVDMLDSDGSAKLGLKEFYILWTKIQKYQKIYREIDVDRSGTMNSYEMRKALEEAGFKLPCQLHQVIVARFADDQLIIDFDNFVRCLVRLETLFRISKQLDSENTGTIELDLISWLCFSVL

Streptokinase A = molecular target: T2, Streptokinase A (Streptococcus pyogenes serotype M1, UniProt P10520); experiment: viability-normalized secreted streptokinase activity reduction – plasminogen activation absorbance, OD405, dose response (AID 1914); format: functional, Streptococcus pyogenes M1 GAS;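 also: secreted streptokinase activity via plasminogen activation per viability signal from cell pellet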
T2 sequence (P10520 whole entry): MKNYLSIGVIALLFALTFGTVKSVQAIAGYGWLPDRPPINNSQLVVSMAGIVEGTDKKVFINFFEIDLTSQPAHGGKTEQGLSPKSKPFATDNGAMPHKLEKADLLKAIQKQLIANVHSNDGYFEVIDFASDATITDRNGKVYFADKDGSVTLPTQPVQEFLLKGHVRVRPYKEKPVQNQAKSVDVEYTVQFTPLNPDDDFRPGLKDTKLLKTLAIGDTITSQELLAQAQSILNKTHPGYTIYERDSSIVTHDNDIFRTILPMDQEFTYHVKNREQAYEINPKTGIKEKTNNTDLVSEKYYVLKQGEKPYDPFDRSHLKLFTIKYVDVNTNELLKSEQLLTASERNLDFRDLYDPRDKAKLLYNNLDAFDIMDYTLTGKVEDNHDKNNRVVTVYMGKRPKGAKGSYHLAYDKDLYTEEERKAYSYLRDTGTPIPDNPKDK

[2] = tested on: Streptococcus sp. 'group A'; experiment: Streptococcus pyogenes SK(-)GAS viability under kanamycin – luminescence, BacTiterGlo, confirmation, counter-screen for streptokinase expression inhibitor project, dose response (AID 1900); format: functional, organism-based
Streptococcus = experiment: GAS UMAA2166 growth inhibition – luminescence, BacTiterGlo, counter-screen for streptokinase expression inhibitor project, dose response (AID 1915); format: functional, organism-based;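 also: potency for reduction of bacterial viability or growth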
[3] = molecular target: T3, Carboxy-terminal domain RNA polymerase II polypeptide A small phosphatase 1 (Homo sapiens, UniProt Q9GZU7); experiment: CTDSP1 inhibitors, concentration-response, biochemical, absorbance readout, ultra-high-throughput screen actives (AID 540297); format: functional
T3 sequence (Q9GZU7 whole entry): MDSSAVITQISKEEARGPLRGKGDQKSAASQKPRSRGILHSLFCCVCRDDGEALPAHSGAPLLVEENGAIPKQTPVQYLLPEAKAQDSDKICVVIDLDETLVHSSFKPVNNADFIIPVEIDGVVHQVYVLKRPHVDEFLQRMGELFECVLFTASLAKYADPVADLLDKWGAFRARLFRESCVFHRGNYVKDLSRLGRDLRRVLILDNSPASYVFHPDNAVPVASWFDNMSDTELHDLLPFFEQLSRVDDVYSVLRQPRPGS

Cytochrome P450 2C9 = Cytochrome P450 2C9 (Homo sapiens, UniProt P11712)
Cytochrome P450 2C19 = Cytochrome P450 2C19 (Homo sapiens, UniProt P33261); experiment: Cytochrome panel assay with activity outcomes. Panel member name: p450-cyp2c19 Compounds with AC50 equal or less than 10 uM are considered active; format: functional; details: read-out: AC50
H9c2 = experiment: cells; format: functional, cell-based; details: Rattus norvegicus, H9c2, Myocardium;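 also: confirmatory concentration-response retest of ultra-high-throughput screening hits for modulation of myocardial damage; cell death induced by hydrogen peroxide oxidative stress; compound pretreatment for 60 min then peroxide exposure for 2 h; potency is for protecting the cells against peroxide damage rather than for killing them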
Cytochrome P450 2D6 = Cytochrome P450 2D6 (Homo sapiens, UniProt P10635);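 also: CYP2D6 member of a cytochrome P450 panel assay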
Protein skinhead-1 = molecular target: T4, Protein skinhead-1 (Caenorhabditis elegans, UniProt P34707); format: functional
T4 sequence (P34707 whole entry): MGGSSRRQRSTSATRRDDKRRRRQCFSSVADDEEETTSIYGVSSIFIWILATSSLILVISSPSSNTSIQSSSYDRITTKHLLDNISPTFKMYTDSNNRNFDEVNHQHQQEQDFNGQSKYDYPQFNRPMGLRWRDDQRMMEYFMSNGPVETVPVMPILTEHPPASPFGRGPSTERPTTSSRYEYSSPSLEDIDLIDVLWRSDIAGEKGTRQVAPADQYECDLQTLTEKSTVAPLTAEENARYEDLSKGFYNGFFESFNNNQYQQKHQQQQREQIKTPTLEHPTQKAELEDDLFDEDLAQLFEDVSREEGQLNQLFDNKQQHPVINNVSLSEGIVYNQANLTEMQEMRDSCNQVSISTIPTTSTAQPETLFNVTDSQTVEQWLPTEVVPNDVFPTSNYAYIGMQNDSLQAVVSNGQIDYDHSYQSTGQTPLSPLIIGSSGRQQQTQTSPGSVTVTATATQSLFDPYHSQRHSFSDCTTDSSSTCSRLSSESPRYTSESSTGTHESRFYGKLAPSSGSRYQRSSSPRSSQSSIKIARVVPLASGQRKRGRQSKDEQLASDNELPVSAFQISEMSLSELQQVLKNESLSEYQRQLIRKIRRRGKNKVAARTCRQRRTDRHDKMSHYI

[4] = THP-1 cell cytotoxicity, dose response, cytotoxicity control for non-replicating M. tuberculosis project (AID 489025); format: functional
[5] = molecular target: Luciferin 4-monooxygenase (Photinus pyralis, UniProt P08659); experiment: inhibition of purified Photinus pyralis luciferase – biochemical, luminescence, dose response (AID 1891)
[6] = Luminescence Cell-Based Dose Confirmation HTS to Identify Inhibitors of Platelet Dense Granule Release. [Related pubchem assays: 1663 (Primary HTS), 1678 (Summary of Project)]; format: functional
Cytochrome P450 1A2 = molecular target: T5, Cytochrome P450 1A2 (Homo sapiens, UniProt P05177);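 also: PubChem cytochrome P450 panel assay, CYP1A2 panel member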
T5 sequence (P05177 whole entry): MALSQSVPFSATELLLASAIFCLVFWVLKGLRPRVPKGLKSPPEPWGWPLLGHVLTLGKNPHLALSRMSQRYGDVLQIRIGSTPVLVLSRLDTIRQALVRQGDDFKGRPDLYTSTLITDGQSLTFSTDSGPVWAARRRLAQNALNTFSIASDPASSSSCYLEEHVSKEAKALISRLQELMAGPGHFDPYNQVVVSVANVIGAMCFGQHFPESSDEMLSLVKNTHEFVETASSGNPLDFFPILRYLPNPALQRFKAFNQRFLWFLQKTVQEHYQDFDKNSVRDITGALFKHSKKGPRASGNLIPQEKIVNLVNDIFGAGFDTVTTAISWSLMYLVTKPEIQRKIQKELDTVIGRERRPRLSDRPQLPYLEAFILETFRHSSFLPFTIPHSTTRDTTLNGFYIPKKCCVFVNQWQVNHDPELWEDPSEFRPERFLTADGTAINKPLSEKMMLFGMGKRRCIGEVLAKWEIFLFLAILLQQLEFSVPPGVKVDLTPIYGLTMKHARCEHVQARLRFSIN

cells = format: functional
Cytochrome P450 3A4 = Cytochrome P450 3A4 (Homo sapiens, UniProt P08684);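 also: CYP3A4 tested as one member of a cytochrome P450 panel screen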
Cytochrome P450 3A4, sequence (P08684 whole entry): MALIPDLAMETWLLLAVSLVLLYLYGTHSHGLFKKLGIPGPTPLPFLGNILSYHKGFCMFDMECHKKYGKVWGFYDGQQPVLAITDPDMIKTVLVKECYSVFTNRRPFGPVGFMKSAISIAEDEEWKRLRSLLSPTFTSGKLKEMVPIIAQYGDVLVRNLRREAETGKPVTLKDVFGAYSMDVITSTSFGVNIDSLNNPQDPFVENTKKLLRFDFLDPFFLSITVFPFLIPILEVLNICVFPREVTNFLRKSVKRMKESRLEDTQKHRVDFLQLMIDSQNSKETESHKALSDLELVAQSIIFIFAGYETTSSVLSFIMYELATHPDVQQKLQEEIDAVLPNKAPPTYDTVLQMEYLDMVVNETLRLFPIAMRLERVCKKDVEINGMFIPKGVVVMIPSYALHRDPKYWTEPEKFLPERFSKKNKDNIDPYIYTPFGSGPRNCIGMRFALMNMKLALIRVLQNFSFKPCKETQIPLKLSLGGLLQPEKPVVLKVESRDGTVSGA

Cytochrome P450 2C9, sequence (P11712 whole entry): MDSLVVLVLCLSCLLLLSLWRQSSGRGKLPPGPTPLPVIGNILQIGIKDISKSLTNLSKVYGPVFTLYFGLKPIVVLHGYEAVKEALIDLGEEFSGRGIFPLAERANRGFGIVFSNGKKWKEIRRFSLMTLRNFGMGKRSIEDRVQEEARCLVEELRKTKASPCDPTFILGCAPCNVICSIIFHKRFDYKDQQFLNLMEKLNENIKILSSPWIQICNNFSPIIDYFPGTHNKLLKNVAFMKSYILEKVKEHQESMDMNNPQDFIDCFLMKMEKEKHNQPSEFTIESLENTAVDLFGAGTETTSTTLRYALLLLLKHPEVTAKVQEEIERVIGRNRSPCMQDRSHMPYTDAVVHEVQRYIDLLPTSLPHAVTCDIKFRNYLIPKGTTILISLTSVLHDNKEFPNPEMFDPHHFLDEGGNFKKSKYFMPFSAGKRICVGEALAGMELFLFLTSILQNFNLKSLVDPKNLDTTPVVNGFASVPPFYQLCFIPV
Luciferin 4-monooxygenase, sequence (P08659 whole entry): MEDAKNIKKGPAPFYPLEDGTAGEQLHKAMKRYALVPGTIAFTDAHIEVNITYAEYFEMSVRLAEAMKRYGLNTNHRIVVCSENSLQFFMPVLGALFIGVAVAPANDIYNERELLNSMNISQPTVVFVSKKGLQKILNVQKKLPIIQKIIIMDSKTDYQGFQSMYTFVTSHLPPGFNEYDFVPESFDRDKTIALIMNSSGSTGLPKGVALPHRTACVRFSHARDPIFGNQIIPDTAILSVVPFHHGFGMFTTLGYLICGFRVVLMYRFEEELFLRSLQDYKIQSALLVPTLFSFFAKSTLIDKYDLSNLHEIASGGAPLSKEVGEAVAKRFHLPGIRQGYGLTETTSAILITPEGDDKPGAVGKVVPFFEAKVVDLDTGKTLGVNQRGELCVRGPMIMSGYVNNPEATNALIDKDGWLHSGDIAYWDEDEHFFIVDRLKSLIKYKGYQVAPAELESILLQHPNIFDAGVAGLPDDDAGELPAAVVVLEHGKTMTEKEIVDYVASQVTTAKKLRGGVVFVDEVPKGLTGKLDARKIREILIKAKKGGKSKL
Cytochrome P450 2D6, sequence (P10635 whole entry): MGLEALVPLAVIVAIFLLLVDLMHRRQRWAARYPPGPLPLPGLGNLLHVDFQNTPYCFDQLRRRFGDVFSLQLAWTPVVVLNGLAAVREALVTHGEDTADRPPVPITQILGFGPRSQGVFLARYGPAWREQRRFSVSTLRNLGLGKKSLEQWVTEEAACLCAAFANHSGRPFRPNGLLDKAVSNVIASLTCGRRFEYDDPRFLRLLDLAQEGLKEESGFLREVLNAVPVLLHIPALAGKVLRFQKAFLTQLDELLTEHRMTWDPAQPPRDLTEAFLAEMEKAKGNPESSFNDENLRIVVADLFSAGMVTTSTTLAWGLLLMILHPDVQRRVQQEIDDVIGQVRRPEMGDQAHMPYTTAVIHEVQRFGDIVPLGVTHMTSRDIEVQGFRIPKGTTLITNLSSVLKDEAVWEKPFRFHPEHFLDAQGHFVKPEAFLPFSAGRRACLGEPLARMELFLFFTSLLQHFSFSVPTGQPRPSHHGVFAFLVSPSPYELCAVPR
Cytochrome P450 2C19, sequence (P33261 whole entry): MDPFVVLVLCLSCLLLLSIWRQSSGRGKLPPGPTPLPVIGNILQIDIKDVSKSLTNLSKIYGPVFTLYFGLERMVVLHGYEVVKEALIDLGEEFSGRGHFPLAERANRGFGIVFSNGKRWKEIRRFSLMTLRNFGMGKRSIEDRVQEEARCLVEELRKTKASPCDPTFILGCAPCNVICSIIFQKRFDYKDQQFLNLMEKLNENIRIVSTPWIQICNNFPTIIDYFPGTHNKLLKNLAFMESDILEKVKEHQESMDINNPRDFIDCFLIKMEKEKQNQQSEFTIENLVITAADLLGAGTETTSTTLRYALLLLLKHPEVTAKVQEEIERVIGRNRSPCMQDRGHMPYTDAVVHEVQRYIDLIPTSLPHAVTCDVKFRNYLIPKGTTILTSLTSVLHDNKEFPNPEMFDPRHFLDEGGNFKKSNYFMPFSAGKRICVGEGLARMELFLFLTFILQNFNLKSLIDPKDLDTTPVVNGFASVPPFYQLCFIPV

CCOC(=O)c1cnc(-n2nc(C)cc2C)nc1Nc1ccc(OC)cc1
IC50 [1]: < 0.4 µM (not active) | EC50 (Streptokinase A): > 150 µM (not active) | EC50 [2]: 6.33 µM (active) | EC50 (Streptococcus): > 150 µM (not active)

COc1ccc(OC)c([N+](=O)[O-])c1C(N)=O
IC50 [3]: 3.49 µM (active)

CN1CCCN(S(=O)(=O)c2ccc3c(c2)OCCO3)CC1
AC50 (Cytochrome P450 2C9): inconclusive | AC50 (Cytochrome P450 2C19): 25.1 µM (inconclusive)

CC(=O)Nc1ccc(N/C=C2\C(=O)NC(=O)N(Cc3ccco3)C2=O)cc1
IC50 [3]: 9.73 µM (active)

O=C(Nc1cc(=O)c2ccccc2o1)N1CCCCC1
IC50 (H9c2): 22.8 µM (active)

CCn1c(CNC(=O)COc2ccc(C(C)C)cc2)nnc1SCC(=O)Nc1cc(F)ccc1C
AC50 (Cytochrome P450 2D6): 22.4 µM (inconclusive) | IC50 [3]: 16.7 µM (active)

COc1ccccc1Nc1nc(Cl)c(C=O)s1
IC50 [1]: > 50 µM (not active)

O=C(COC(=O)c1ccc(Cl)c(S(=O)(=O)N2CCCCC2)c1)NCc1ccco1
IC50 [3]: 13.8 µM (active)

CN1/C(=C\C(=O)CSc2nnc(NCc3ccccc3)s2)C(C)(C)c2ccccc21
IC50 [1]: 4.01 µM (not active) | IC50 (Protein skinhead-1): > 100 µM (inactive)

CCCCNC(=O)Cc1ccc(C)cc1
CC50 [4]: > 40 µM (active)

CCCCNC(=O)Nc1ccc(Br)cn1
EC50 [5]: > 112 µM (not active) | EC50 [6]: > 112 µM (not active)

CCCn1c(C2CC(=O)N(c3cc(OC)ccc3OC)C2)nc2ccccc21 (configuration not stated)
EC50 [5]: > 112 µM (not active) | EC50 [6]: > 112 µM (not active)

O=C(CNC(=O)c1cccs1)NCC(=O)OCc1ccc(Cl)cc1Cl
AC50 (Cytochrome P450 2C9): inconclusive | AC50 (Cytochrome P450 1A2): 10 µM (inconclusive)

Cc1cccc(OCc2nc(C#N)c(NCc3ccc4c(c3)OCO4)o2)c1
IC50 [1]: 6.8 µM (not active)

CC(C)C1OC(NC(=O)Nc2ccc(Cl)c(Cl)c2)=NC1=O (configuration not stated)
CC50 [4]: > 40 µM (active) | EC50 (Streptokinase A): > 150 µM (not active) | EC50 [2]: 2.51 µM (active) | IC50 (cells): 18.9 µM (active) | EC50 (Streptococcus): 28.7 µM (active)

COCC(C)n1c(C)cc(C(=O)COC(=O)c2c(NC(C)=O)sc(C)c2C)c1C (configuration not stated)
IC50 [3]: 9.88 µM (active)

COC(=O)c1cc(Cl)c(NC(=O)/C=C/c2ccc(OC)c(OC)c2)cc1OC
IC50 (H9c2): 22.1 µM (active)

Cc1cccc(CNc2ccnc(-c3ccccc3CN(C)C)n2)c1
AC50 (Cytochrome P450 2C9): inconclusive | AC50 (Cytochrome P450 3A4): 3.98 µM (inconclusive)

CCc1cccc2c(C=C(C#N)C#N)cn(CC(=O)N3CCCC3)c12
AC50 (Cytochrome P450 2C9): inconclusive

O=C(Nc1ccccc1Cl)c1ccccc1Cl
AC50 (Cytochrome P450 2C9): inconclusive

Cc1cc(C)n(C(=O)c2cc3ccccc3c(=O)o2)n1
AC50 (Cytochrome P450 2C9): inconclusive

COc1ccccc1OP(=O)(Nc1cccnc1)Oc1ccccc1OC
IC50 (H9c2): > 79 µM (inactive)

Cc1cc2ncn(-c3ncnc4sc5c(c34)CCC(C)C5)c2cc1C (configuration not stated)
IC50 [1]: 19.2 µM (not active)

c1ccc(Oc2ccc(-c3ccnc4ncnn34)cc2)cc1
IC50 [1]: 11.5 µM (active)

Cc1ccc(NC(=O)CN(C)C(=O)c2cc(-c3ccco3)nc3ccccc23)cc1
IC50 [3]: 3.88 µM (active)

Cc1ccc(C(=O)O)cc1-c1ccc(C=C2C(=O)c3ccccc3C2=O)o1
IC50 [3]: 13.7 µM (active)

COn1c(=O)c(=O)n(O)c2ccccc21
EC50 [5]: > 112 µM (not active) | EC50 [6]: > 112 µM (not active)

Cc1ccc(S(=O)(=O)N2CCN(C(=O)COC(=O)CCOc3ccccc3C)CC2)c(C)c1
IC50 [3]: 10.7 µM (active)

Cc1nn(-c2ccccc2)c(Cl)c1C(=O)NNC(=O)c1ccccc1O
IC50 (H9c2): 13 µM (active)

Cc1cc2ccccn2c1C(=O)c1ccc(N/N=C/c2ccc(C(=O)O)cc2)c([N+](=O)[O-])c1
IC50 [3]: 1.02 µM (active)

Cc1ccc(NC(=O)c2cccc(N(C)C)c2)cc1NC(=O)c1ccc(O)cc1
AC50 (Cytochrome P450 2C9): inconclusive

CC(=O)c1ccc(-c2cnc3c(NC=O)cc(-c4cccc(NS(C)(=O)=O)c4)cn23)cc1
IC50 (H9c2): > 79 µM (inactive)

N#Cc1ccc(OCC(=O)Nc2nc(-c3ccccn3)cs2)cc1
IC50 (H9c2): > 79 µM (inactive)

Cc1cc(CNC(=O)COC(=O)Cn2[nH]c(=O)c3ccccc3c2=O)cc(C)c1O
IC50 (H9c2): > 79 µM (inactive)

CC1(C(=O)Nc2cccc(OC(F)(F)F)c2)Cc2c(-c3ccc(C(N)=O)cc3)ccnc2O1 (configuration not stated)
IC50 (H9c2): > 79 µM (inactive)

C/C(=N\NC(=O)COc1ccc(C)cc1Br)c1cc([N+](=O)[O-])cs1
CC50 [4]: > 40 µM (active) | IC50 (cells): 34.1 µM (active)
